# Source: EP4818194A1, “CHEMICALLY MODIFIED POLYPEPTIDE” (priority 2023, dated 2025)
# Where a SMILES comes first, the peptide text is derived from it. Where no end group is shown, it is not given here. [ ]: non-standard residue; d: D form. pY = N[C@@H](Cc1ccc(OP(=O)(O)O)cc1)C(=O)O; NMeY = CN[C@@H](Cc1ccc(O)cc1)C(=O)O; Tle = CC(C)(C)[C@H](N)C(=O)O; Aib = CC(C)(N)C(=O)O
# Assays:
# [1] = Pharmacokinetic characteristics in rats after intravenous administration (plasma, LC-MS/MS); assay type: in vivo; details: rat, SD rats, tail vein, 10 mg/kg; for Vd: read-out: Vss
# Description: Intravenous administration: Three SD rats per group were administered the compounds of Example 1, Example 2, Example 3, Example 6, Example 7, Example 17, and Example 19 via the tail vein, respectively, at a dose of 10 mg/kg. all SD rats were allowed free access to food and water after administration. Plasma was collected 3 min, 10 min, 30 min, 1 h, 2 h, 6 h, 10 h, and 24 h after administration, with 3 rats per time point.
# Sample processing: Whole blood was anticoagulated with EDTA-K2. Within 30 minutes of collection, the blood was centrifuged at 3000g for 10 minutes at 2-8°C. After centrifugation, the separated plasma was transferred to new 1.5 mL centrifuge tubes and stored at -80°C.
# Analytical method: The concentrations of each compounds in rat plasma were determined by LC-MS/MS using Shimadzu LC30AD and AB Sciex QTRAP 6500+instruments. The relevant pharmacokinetic parameters after administration were calculated. Table 5: Pharmacokinetic parameters after administration
# PC-12 cells = assay type: cell-based; details: for Normalized cell viability (%): PC-12 cells, 10 nM polypeptide pretreatment for 30 minutes, then glutamate stimulation for 24 hours, normalized to positive control MK-801 and glutamate group
# Description: PC-12 cells (a […] cell line derived from rat adrenal medulla) were cultured in DMEM/F12 complete medium until eaching 80-90% confluence. The cells were then digested, collected, resuspended, and seeded at density of 5 × 10^4 cells per well in a 24-well plate precoated with coverslips. Following 26 hours of cell culture, excitotoxic cell death was induced by glutamate stimulation. For model establishment: an appropriate amount of glutamate was weighed and dissolved in DMEM/F12 medium to prepare a stock solution. After filtration, the stock solution was diluted with culture medium and administered to the cells via medium replacement. The cells were further incubated for 24 hours after administration.
# Prior to glutamate modeling, cells incubated as described in the previous step were pretreated with 10 nM of the polypeptide compound according to the present application for 30 minutes, followed by glutamate stimulation.
# Cells treated with the polypeptide compound according to the present application were stained with propidium iodide to assess cell death. After discarding the culture medium, the cells were washed with PBS, and propidium iodide/Hoechst was added. After incubating for 30 minutes, the cells were removed and the staining solution was discarded. After washing with PBS, the cells were fixed and mounted, and subjected to image acquisition under a fluorescence microscope. The number of propidium iodide-positive cells and Hoechst-positive cells in the acquired images was counted to calculate the cell viability. MK-801 was used as the positive control compound. The normalized cell viability was calculated using the following formula: (cell viability of the compound group - cell viability of the glutamate group) / (cell viability of the positive control group - cell viability of the glutamate group) × 100%.
# Based on the above dose-response studies of the compound, the inhibitory effects of different small-molecule compounds at the same dose (10 nM) against excitotoxic death in PC-12 neurons cells were further compared. […]
EC50 (PC-12 cells; 26 h) [nM],Compound,MRT [1] [h],half-life [1] [h],Vd [1] [L/kg],Normalized cell viability (%) (PC-12 cells)
–,CN[C@@H](Cc1ccc(O)cc1)C(=O)NCC(=O)N[C@@H](CCCNC(=N)N)C(=O)N[C@@H](CCCCN)C(=O)N[C@@H](CCCCN)C(=O)N[C@@H](CCCNC(=N)N)C(=O)N[C@@H](CCCNC(=N)N)C(=O)N[C@@H](CCC(=O)O)C(=O)N[C@@H](CCCNC(=N)N)C(=O)N[C@@H](CCCNC(=N)N)C(=O)N[C@@H](CCCNC(=N)N)C(=O)N[C@@H](CCCCN)C(=O)N[C@@H](CCCCN)C(=O)N[C@@H](CC(=O)O)C(=O)N[C@@H](CCCNC(=N)N)C(=O)N[C@@H](CC(=O)O)C(=O)N[C@@H](CCCCN)C(=O)N[C@@H](CC(C)C)C(=O)N[C@@H](CCCNC(=N)N)C(=O)N[C@@H](CCCNC(=N)N)C(=O)N[C@@H](CCC(=O)O)C(=O)N[C@@H](Cc1c[nH]cn1)C(=O)N[C@@H](CO)C(=O)N[C@@H](Cc1ccc(O)cc1)C(N)=O [Example 19] (H-[NMeY]GRKKRRERRRKKDRDKLRREHSY-NH2),1.73,1.16,9.11,–
–,"YGRKKRRQRRRKKNRNKLRRQHSY [Example 1, reference compound]",0.87,0.76,1.29,41.00
–,CC(C)C[C@H](NC(=O)[C@H](CCCCN)NC(=O)[C@H](CC(N)=O)NC(=O)[C@H](CCCNC(=N)N)NC(=O)[C@H](CC(N)=O)NC(=O)[C@H](CCCCN)NC(=O)[C@H](CCCCN)NC(=O)[C@H](CCCNC(=N)N)NC(=O)[C@H](CCCNC(=N)N)NC(=O)[C@H](CCCNC(=N)N)NC(=O)[C@H](CCC(N)=O)NC(=O)[C@H](CCCNC(=N)N)NC(=O)[C@H](CCCNC(=N)N)NC(=O)[C@H](CCCCN)NC(=O)[C@H](CCCCN)NC(=O)[C@H](CCCNC(=N)N)NC(=O)CNC(=O)[C@@H](N)Cc1ccc(OP(=O)(O)O)cc1)C(=O)N[C@@H](CCCNC(=N)N)C(=O)N[C@@H](CCCNC(=N)N)C(=O)N[C@@H](CCC(N)=O)C(=O)N[C@@H](Cc1c[nH]cn1)C(=O)N[C@@H](CO)C(=O)N[C@@H](Cc1ccc(O)cc1)C(=O)O [Example 3] (H-[pY]GRKKRRQRRRKKNRNKLRRQHSY-OH),1.71,1.28,7.9,–
–,CN[C@@H](Cc1ccc(O)cc1)C(=O)NCC(=O)N[C@@H](CCCNC(=N)N)C(=O)N[C@@H](CCCCN)C(=O)N[C@@H](CCCCN)C(=O)N[C@@H](CCCNC(=N)N)C(=O)N[C@@H](CCCNC(=N)N)C(=O)N[C@@H](CCC(N)=O)C(=O)N[C@@H](CCCNC(=N)N)C(=O)N[C@@H](CCCNC(=N)N)C(=O)N[C@@H](CCCNC(=N)N)C(=O)N[C@@H](CCCCN)C(=O)N[C@@H](CCCCN)C(=O)N[C@@H](CC(N)=O)C(=O)N[C@@H](CCCNC(=N)N)C(=O)N[C@@H](CC(N)=O)C(=O)N[C@@H](CCCCN)C(=O)N[C@@H](CC(C)C)C(=O)N[C@@H](CCCNC(=N)N)C(=O)N[C@@H](CCCNC(=N)N)C(=O)N[C@@H](CCC(N)=O)C(=O)N[C@@H](Cc1c[nH]cn1)C(=O)N[C@@H](CO)C(=O)N[C@@H](Cc1ccc(O)cc1)C(=O)O [Example 2] (H-[NMeY]GRKKRRQRRRKKNRNKLRRQHSY-OH),1.84,1.73,3.94,–
–,Ac-YGRKKRRQRRRKKNRNKLRRQHSY [Example 4],–,–,–,85.00
–,YGRKKRRQRRRKKNRNKLRRQHSY-NH2 [Example 6],1.65,1.23,2.53,–
–,Ac-YGRKKRRQRRRKKNRNKLRRQHSY-NH2 [Example 7],1.93,1.51,3.58,–
–,YGRKKRRERRRKKDRNKLRRQHSY [Example 17],2.29,1.66,23.1,–
1.35,"CN[C@@H](Cc1ccc(O)cc1)C(=O)NC(C)(C)C(=O)N[C@@H](CCCNC(=N)N)C(=O)N[C@@H](CCCCN)C(=O)N[C@@H](CCCCN)C(=O)N[C@@H](CCCNC(=N)N)C(=O)N[C@@H](CCCNC(=N)N)C(=O)N[C@@H](CCC(=O)O)C(=O)N[C@@H](CCCNC(=N)N)C(=O)N[C@@H](CCCNC(=N)N)C(=O)N[C@@H](CCCNC(=N)N)C(=O)N[C@@H](CCCCN)C(=O)N[C@@H](CCCCN)C(=O)N[C@@H](CC(=O)O)C(=O)N[C@@H](CCCNC(=N)N)C(=O)N[C@@H](CC(=O)O)C(=O)N[C@@H](CCCCN)C(=O)N[C@H](C(=O)N[C@@H](CCCNC(=N)N)C(=O)N[C@@H](CCCNC(=N)N)C(=O)N[C@@H](CCC(=O)O)C(=O)N[C@@H](Cc1c[nH]cn1)C(=O)N[C@@H](CO)C(=O)N[C@@H](Cc1ccc(O)cc1)C(N)=O)C(C)(C)C [Example 24, Me-YAibRKKRRERRRKKDRDKTleRREHSY-NH2] (H-[NMeY][Aib]RKKRRERRRKKDRDK[Tle]RREHSY-NH2)",–,–,–,–
